The values that follow come from patent US8633324B2, “Denibulin di-hydrochloride” (Medicinova, Inc., priority 2011, dated 2014).

Structures are written as SMILES. Counter-ions that a name gives are not always drawn. Like-named read-outs stand apart in the source and are kept apart here.

A short description of series [1]: Solubility in citrate buffer at different pH values (1M sodium hydroxide added), HPLC. In kind it is physicochemical. To be noted: for solubility: aqueous buffer, thermodynamic from solid, read-out: Solubility (free base equivalent). On the procedure:
To investigate the solubility of MN-029 di-hydrochloride in citrate buffer, the di-hydrochloride salt was added in multiple small portions to 10 milliliters of an aqueous solution of citric acid (3.87 mg/ml). When no more solid dissolved, that is, when saturation was achieved, the solution in the vial was allowed to equilibrate for approximately 24 hours with shaking at 25° C. […] The pH of the saturated solution was measured prior to filtration of undissolved solid. The filtrate obtained was equally divided into five vials.
To the filtrate in each of the vials was added different volumes of 1M sodium hydroxide so as to increase the pH of the filtrate to a predetermined pH value. It was observed that the addition of base caused solid to precipitate out of solution. The reaction mixture is allowed to equilibrate with shaking at 25° C., following which the solid residue is filtered and the filtrate obtained is analyzed for presence of dissolved compound by HPLC.

Series [2] can be described thus: Aqueous solubility, 24 hours equilibration in water at 25° C., HPLC, pH and XRPD of residue. In kind it is physicochemical. To be noted: water. Here is the method:
Briefly, quantitative high performance liquid chromatography (HPLC) was used to determine the aqueous solubility. X-ray powder diffraction spectrometry was also used to characterize the thermodynamic solubility of the mono-hydrochloride and di-hydrochloride salts of MN-029. After a 24 hours equilibration of each salt form in water at 25° C., the residual solid material was separated from the aqueous solution and the pH of the aqueous sample was measured. The XRPD spectrum of the solid residue obtained from the MN-029 di-hydrochloride vial indicated the solid material to be the mono-hydrochloride salt of MN-029. […] Table 4 illustrates the data from aqueous solubility studies of the mono-hydrochloride and di-hydrochloride salts of MN-029.
The suspension was equilibrated at 25° C. for 24 hours then pH was measured. The suspension was filtered and the filtrate was diluted by a factor of 101. Quantization by HPLC with a reference to a standard solution. Different volumes of the standard, diluted, and undiluted solution were injected and solubility was calculated by integration of the peak found at the same time as the principle peak in the standard solution.

[3] abbreviates: 25° C., equilibration for 24 hours.

As a reminder, the solubility is how much of the substance goes into solution per volume. Turning to `COC(=O)Nc1nc2ccc(Sc3ccc(NC(=O)[C@H](C)N)cc3)cc2[nH]1` [MN-029 di-hydrochloride, carbamic acid N-[6-[[4-[[(2S)-2-amino-1-oxopropyl]amino]phenyl]thio]-1H-benzimidazol-2-yl]-methyl ester di-hydrochloride], the “fold less soluble at pH of about 5.5 than at pH of about 1.0” value in series [1] is on record as “approximately 3000 fold”. Also, the solubility is 2900 µg/mL in series [1] (pH 0.96, 25° C.); 1600 µg/mL in series [1] (pH 2.03, 25° C.); 39 µg/mL in series [1] (pH 3.23, 25° C.); under 1 µg/mL in series [1] (pH 5.57, 25° C.). Further, in series [2], the “fold more soluble in water than the mono-hydrochloride salt” value is listed as “at least 3 fold”. Also, the Concentration of filtrate in series [2] (setting [3]) is on record as 2.1 mg/ml of free base. In addition, the “pH of saturated solution” value in series [2] (setting [3]) was determined as 1.03.
